Measured values from publication PMC10931745 (International Journal of Molecular Sciences, 2024).

System: NO production in LPS-stimulated RAW 264.7 macrophages
Assay: Griess assay, NO production
Format: cell-based, murine
Details: 25 µM, LPS 1 µg/mL, 24 h
Experimental: The Griess assay was performed using RAW 264.7 murine macrophages to study the anti-inflammatory activity in terms of NO production. RAW 264.7 cells were plated in the 48 multi-wells and, after 24 h, treated with the tested molecules (25 µM) and the lipopolysaccharide (LPS, Sigma Aldrich, Milan, Italy) at a final concentration of 1 µg/mL. LPS is able to induce inflammation by stimulating NO production in immune system cells such as macrophages. After 24 h, the cell medium Griess reagent (Sigma Aldrich, Milan, Italy) was mixed in with a ratio of 1:1. The Griess reagent allowed for the quantification of NO released by macrophages in the treatment medium. The mixture was left for 30 min under agitation and, subsequently, the absorbance at 540 nm was measured using a multiplate reader. The obtained absorbance allowed us to calculate the NO production % compared to the absorbance obtained for the positive control, in which the cells were treated with LPS.

## Cn1c(=O)c2c(n(C)[c]([Au-][I])[n+]2CC(O)c2ccccc2)n(C)c1=O (racemic) [AuL1, 1,3,7-Trimethylxanthin-9-[(2-hydroxy-2-phenyl)ethyl-8-ylidene]Au(I) Iodide]
  Reduction in NO production: ~6.23%

## CC(=O)[O][Ag-][c]1n(C)c2c(c(=O)n(C)c(=O)n2C)[n+]1C1CCCCC1O (centres unmarked) [AgL2OAc, 1,3,7-Trimethylxanthin-9-[cyclohexan-2-ol-8-ylidene]Ag(I) Acetate]
  Reduction in NO production: about 5.20%
